The source of these data is patent publication US12018011B2, “Macrocyclic compounds and compositions, and methods of preparing and using the same” (Kura Oncology, Inc., priority 2021, dated 2024).

The subject of one series is T24/83 cells. Description: T24/83 cell proliferation assay (CellTiter-Glo). The class given is cell-based. To be noted: Homo sapiens, 96 h, 4 days. The method in brief: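 HRAS-mutant T24/83 bladder carcinoma cells seeded at 100 cells/well and grown with inhibitor for 4 days at 37 °C; 0.7% DMSO negative control, 100 μM tipifarnib positive control. Viability by CellTiter-Glo luminescence.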
Background: In ATP-based viability assays light output follows the ATP content of the culture.

Series [1] concerns the target T1, Recombinant human farnesyl transferase (FTase) (Homo sapiens, UniProt P49356).
T1 construct: purchased Crelux (Martinsried, Germany)
Description: FTase fluorescence assay (farnesylation of dansyl-GCVLS peptide). Particulars: recombinant human FTase 2.5 nM, Dansyl-GCVLS 85 nM, FPP 30 nM, 30° C., 50 minutes. It is filed as biochemical.

The target of series [2] is T2, geranylgeranyl transferase type-1 (GGTase) (Homo sapiens, UniProt P53609).
T2 construct: purchased Crelux (Martinsried, Germany)
Description: GGTase fluorescence assay (dansyl-GCVLL peptide, GGPP). The class given is biochemical. Particulars: GGTase 25 nM, Dansyl-GCVLL 10 μM, GGPP 10 μM, 30° C., 120 minutes. From the text: T24/83 cell line was purchased from the European Collection of Authenticated Cell Cultures (Salisbury, UK). Recombinant human farnesyl transferase (FTase) and geranylgeranyl transferase type-1 (GGTase) were obtained from Crelux (Martinsried, Germany). Dansyl labelled GCVLS peptide was purchased from Bachem (Torrance, CA), and Dansyl labelled GCVLL peptide was purchased from Bio Synthesis (Lewisville, TX). Farnesyl Pyrophosphate (FPP) and Geranylgeranyl pyrophosphate (GGPP) were purchased from Cayman (Ann Arbor, MI).
Geranylgeranyl transferase (GGTase) is a closely related enzyme to farnesyl transferase (FTase). The two enzymes share a common regulatory chain but have distinct individual enzymatic domains. GGTase catalyses the addition of an alternative prenylated side chain to some of the same proteins that may also be farnesylated. Thus, selective inhibitory activity against FTase relative to GGTase is a critical characteristic for FTase inhibitors.
The IC50 value of the compounds disclosed herein as inhibitors of Ftase and/or GGTase, was determined by measuring the concentration (provided in nM) necessary to achieve inhibition of enzyme activity by 50% (IC50). […] Compounds having a low IC50 value against FTase, for example an IC50 (FTase)<100 nM, such as an IC50 (FTase)<10 nM, are preferred. Compounds having a low IC50 value against FTase and a high IC50 value against GGTase, for example an IC50 (FTase)<100 nM, such as an IC50 (FTase)<10 nM, and an IC50 (GGTase)>100 nM, are potent and selective inhibitors of FTase, and are particularly preferred.
The inhibition activities of the compounds disclosed herein against Ftase and GGTase were measured in the respective fluorescence assays as follows:
For the GGTase assay, GGTase (25 nM), Dansyl labelled GCVLL peptide (10 μM), GGPP (10 μM) and inhibitor were mixed in assay buffer (50 mM Tris, pH 7.5, 10 mM magnesium chloride, 10 μM zinc chloride, 0.08% CHAPS, 5 mM dithiothreitol) and incubated in a total volume of 20 μL at 30° C. for 120 minutes.
For both the FTase assay and GGTase assay, fluorescence intensity was detected (excitation at 340 nm and emission at 486 nm) using EnVision (PerkinElmer; Waltham, MA), IC50 determinations were performed using a sigmoidal dose-response model with Xlfit software (IDBS, Inc.; Boston, MA), and tipifarnib was used as a positive control. All the assay plates for each assay passed the QC criteria (S/B, Z factor).

The nature of series [3]: Metabolic stability in mouse liver microsomes. To be noted: CD-1 mouse liver microsomes 0.5 mg protein/mL, test compound 1 μM, 37° C.; read-out: T1/2 in MLM. The class given is in vitro ADME.
A short description of series [4]: Metabolic stability in human liver microsomes. It is filed as in vitro ADME. To be noted: human liver microsomes 0.5 mg protein/mL, test compound 1 μM, 37° C.; read-out: T1/2 in HLM. In general terms: Liver microsomes are a subcellular fraction often used to study metabolism.
For series [5] the following is noted: ether bond.

Read-outs that look alike come from different tables or passages of the source.

On to `Cn1cncc1[C@@]1(N)c2ccc(Cl)c(c2)OCc2cccc(c2)-c2cc(=O)n(C)c3ccc1cc23` [(S)-15, (S)-3-amino-4^4-chloro-2^1-methyl-3-(1-methyl-1H-imidazol-5-yl)-2^1,2^2-dihydro-5-oxa-2(4,6)-quinolina-1,4(1,3)-dibenzenacyclohexaphan-2^2-one], for which the IC50 in the series on T24/83 cells is 50 to 500 nM; in series [1], not above 10 nM; in series [2] it was more than 1000 nM. For the same molecule, the half-life at 1 μM in series [3] is less than 5 min; in series [4], 30 to 100 min.

In the case of `Cn1cncc1[C@@]1(O)c2ccc(C#N)c(c2)OCc2cccc(c2)-c2cc(=O)n(C)c3ccc1cc23` [(S)-18, (S)-3-hydroxy-2^1-methyl-3-(1-methyl-1H-imidazol-5-yl)-2^2-oxo-2^1,2^2-dihydro-5-oxa-2(4,6)-quinolina-1,4(1,3)-dibenzenacyclohexaphane-4^4-carbonitrile], the IC50 in the series with T24/83 cells is not above 50 nM; in series [1], not above 10 nM; in series [2] it was more than 1000 nM. Further, the results for the half-life at 1 μM in series [3] and in series [4] were 5 to 15 min and 30 to 100 min, respectively.

For `[2H]C([2H])([2H])n1c(=O)cc2c3cc(ccc31)[C@@](N)(c1cncn1C)c1ccc(C#N)c(c1)OCc1cccc-2c1` [(S)-20, (S)-3-amino-2^1-(methyl-d3)-3-(1-methyl-1H-imidazol-5-yl)-2^2-oxo-2^1,2^2-dihydro-5-oxa-2(4,6)-quinolina-1,4(1,3)-dibenzenacyclohexaphane-4^4-carbonitrile], the figures for the IC50 (in the series on T24/83 cells; in series [1]; in series [2]) were not above 50 nM, not above 10 nM and more than 1000 nM, respectively. The results for the half-life at 1 μM in series [3] and in series [4] were more than 15 min and more than 100 min, respectively.

For the molecule `Cn1cncc1[C@@]1(N)c2ccc(Cl)c(c2)OCCc2cccc(c2)-c2cc(=O)n(C)c3ccc1cc23` [(S)-27, (S)-3-amino-4^4-chloro-2^1-methyl-3-(1-methyl-1H-imidazol-5-yl)-2^1,2^2-dihydro-5-oxa-2(4,6)-quinolina-1,4(1,3)-dibenzenacycloheptaphan-2^2-one], the results for the half-maximal inhibitory concentration (IC50) (with T24/83 cells; in series [1]; in series [2]) were not above 50 nM, not above 10 nM and more than 1000 nM, respectively. In addition, the half-life at 1 μM is less than 5 min in series [3] and less than 30 min in series [4].

On to `[2H]C([2H])([2H])n1c(=O)cc2c3cc(ccc31)[C@@](N)(c1nncn1C)c1ccc(Cl)c(c1)OCCc1cccc-2c1` [(S)-34, (S)-3-amino-4^4-chloro-2^1-(methyl-d3)-3-(4-methyl-4H-1,2,4-triazol-3-yl)-2^1,2^2-dihydro-5-oxa-2(4,6)-quinolina-1,4(1,3)-dibenzenacycloheptaphan-2^2-one], for which the figures for the half-inhibitory concentration (IC50) (in the series with T24/83 cells; in series [1]; in series [2]) were 50 to 500 nM, not above 10 nM and more than 1000 nM, respectively. The half-life at 1 μM in series [3] was 5 to 15 min; in series [4], less than 30 min.

Consider `Cn1cncc1[C@@]1(N)c2ccc(C#N)c(c2)OCCc2cccc(c2)-c2cc(=O)n(C)c3ccc1cc23` [(S)-37, (S)-3-amino-2^1-methyl-3-(1-methyl-1H-imidazol-5-yl)-2^2-oxo-2^1,2^2-dihydro-5-oxa-2(4,6)-quinolina-1,4(1,3)-dibenzenacycloheptaphane-4^4-carbonitrile], for which the IC50 was not above 50 nM in the series with T24/83 cells, not above 10 nM in series [1] and more than 1000 nM in series [2]. The results for the half-life at 1 μM in series [3] and in series [4] were less than 5 min and less than 30 min, respectively.

As to `Cn1cncc1[C@@]1(N)c2ccc(Cl)c(c2)COc2cccc(c2)-c2cc(=O)n(C)c3ccc1cc23` [(S)-46, (S)-3-amino-4^4-chloro-2^1-methyl-3-(1-methyl-1H-imidazol-5-yl)-2^1,2^2-dihydro-6-oxa-2(4,6)-quinolina-1,4(1,3)-dibenzenacyclohexaphan-2^2-one], the half-maximal inhibitory concentration (IC50) in the series on T24/83 cells was not above 50 nM; in series [1], not above 10 nM; in series [2], more than 1000 nM. In addition, the half-life at 1 μM in series [3] is 5 to 15 min; in series [4] it was more than 100 min.

For the molecule `[2H]C([2H])([2H])n1c(=O)cc2c3cc(ccc31)[C@@](N)(c1cncn1C)c1ccc(Cl)c(c1)COc1cccc-2c1` [(S)-47, (S)-3-amino-4^4-chloro-2^1-(methyl-d3)-3-(1-methyl-1H-imidazol-5-yl)-2^1,2^2-dihydro-6-oxa-2(4,6)-quinolina-1,4(1,3)-dibenzenacyclohexaphan-2^2-one], the 50% inhibitory concentration (IC50) in the series with T24/83 cells is not above 50 nM; in series [1], not above 10 nM; in series [2] it was more than 1000 nM. In addition, the half-life at 1 μM in series [3] is 5 to 15 min; in series [4] it was more than 100 min.

For the molecule `Cn1cnnc1[C@@]1(N)c2ccc(Cl)c(c2)COc2cccc(c2)-c2cc(=O)n(C)c3ccc1cc23` [(S)-51, (S)-3-amino-4^4-chloro-2^1-methyl-3-(4-methyl-4H-1,2,4-triazol-3-yl)-2^1,2^2-dihydro-6-oxa-2(4,6)-quinolina-1,4(1,3)-dibenzenacyclohexaphan-2^2-one], the IC50 was 50 to 500 nM with T24/83 cells, not above 10 nM in series [1] and more than 1000 nM in series [2]. The half-life at 1 μM in series [3] is more than 15 min; in series [4], more than 100 min.

For the molecule `[2H]C([2H])([2H])n1c(=O)cc2c3cc(ccc31)[C@@](N)(c1cncn1C)c1ccc(C#N)c(c1)COc1cccc-2c1` [(S)-56, (S)-3-amino-2^1-(methyl-d3)-3-(1-methyl-1H-imidazol-5-yl)-2^2-oxo-2^1,2^2-dihydro-6-oxa-2(4,6)-quinolina-1,4(1,3)-dibenzenacyclohexaphane-4^4-carbonitrile], the concentration for half-maximal inhibition (IC50) in the series with T24/83 cells was not above 50 nM; in series [1] it was not above 10 nM; in series [2], more than 1000 nM. The half-life at 1 μM in series [3] is more than 15 min; in series [4], more than 100 min.

As to `Cn1cncc1[C@@]1(N)c2ccc(C#N)c(c2)COc2cccc(c2)-c2cc(C#N)nc3ccc1cc23` [(S)-58, (S)-3-amino-3-(1-methyl-1H-imidazol-5-yl)-6-oxa-2(4,6)-quinolina-1,4(1,3)-dibenzenacyclohexaphane-2^2 4^4-dicarbonitrile], the IC50 in the series on T24/83 cells is not above 50 nM; in series [1], not above 10 nM; in series [2], more than 1000 nM. The results for the half-life at 1 μM in series [3] and in series [4] were more than 15 min and more than 100 min, respectively.

In series [5] (from COc1cc(-c2cccc(O)c2)c2cc(C(O)(c3ccc(Cl)c(CO)c3)c3cncn3C)ccc2n1, Cs2CO3, THF, 9.5 mM, 105.0 °C, 10.0 h, 2 steps), `COc1cc2c3cc(ccc3n1)C(O)(c1cncn1C)c1ccc(Cl)c(c1)COc1cccc-2c1` (stereo not shown) [Compound 43, 4^4-chloro-2^2-methoxy-3-(1-methyl-1H-imidazol-5-yl)-6-oxa-2(4,6)-quinolina-1,4(1,3)-dibenzenacyclohexaphan-3-ol] gave a ring closure, yield of all isomers of 82.9%. Moreover, in series [1], the IC50 lay within 10 to 100 nM.

As for `COc1cc2c3cc(ccc3n1)C(O)(c1nncn1C)c1ccc(Cl)c(c1)COc1cccc-2c1` (stereo not shown) [Compound 49, 4^4-chloro-2^2-methoxy-3-(4-methyl-4H-1,2,4-triazol-3-yl)-6-oxa-2(4,6)-quinolina-1,4(1,3)-dibenzenacyclohexaphan-3-ol], the ring closure, yield of all isomers in series [5] (from COc1cc(-c2cccc(O)c2)c2cc(C(O)(c3ccc(Cl)c(CCl)c3)c3nncn3C)ccc2n1, K2CO3, DMF, 29.8 mM, 55.0 °C, 12.0 h) is 19%. Further, in series [1], the half-inhibitory concentration (IC50) was more than 100 nM.

As to `Cn1cncc1[C@@](N)(c1ccc(Cl)cc1)c1ccc2c(c1)c(-c1cccc(Cl)c1)cc(=O)n2C` [Tipifarnib, tipifarnib, reference compound], the figures for the IC50 (in the series on T24/83 cells; in series [1]; in series [2]) were not above 50 nM, not above 10 nM and more than 1000 nM, respectively. Further, the half-life at 1 μM was less than 5 min in series [3] and less than 30 min in series [4].

What is called IC50 is the point on the concentration scale where inhibition reaches its midpoint.
